Measured values as given in US8211662B2, “Nitroreductase enzymatic substrates” (Biomerieux, priority 2007, dated 2012).

Experiments:
Assay in all cases: Nitroreductase detection on Columbia agar, colonies read under UV
Details in all cases: Table 4; 100 mg/l in Columbia agar, 24 h 37° C., UV 360-365 nm
[1] = test system: Bacillus subtilis NCTC 9372; type: cell-based; set-up: key: − = no fluorescence detected; +/− = weak fluorescence; + = medium fluorescence; ++ = strong fluorescence
Description: (§1) A mass of 40 mg of each substrate was dissolved in 4 ml of dimethylformamide (DMF). This solution was entirely taken up in 400 ml of Columbia agar autoclaved beforehand and kept molten at 50° C. The final concentration for each substrate was 100 mg/l.
(§2) Each of the media was distributed into Petri dishes 90 mm in diameter, in a proportion of 20 ml per dish.
(§3) 18 microorganism strains derived from collections and belonging to various species of bacteria and of yeasts were inoculated onto these media by semi-quantitative isolation of 10 μl of a suspension at 0.5 McFarland diluted to 1/20. The media were incubated for 24 hours at 37° C., then the colonies formed were examined visually under UV illumination at 360-365 nm.

[2] = test system: Staphylococcus epidermidis NCTC 11047; type: cell-based; set-up: key: − = no fluorescence detected; +/− = weak fluorescence; + = medium fluorescence; ++ = strong fluorescence
Description: as §1, §2, §3

[3] = test system: Yersinia enterocolitica NCTC 11176; type: cell-based; set-up: key: − = no fluorescence detected; +/− = weak fluorescence; + = medium fluorescence; ++ = strong fluorescence
Description: as §1, §2, §3

[4] = test system: Candida albicans ATCC 90028; type: cell-based; set-up: key: − = no fluorescence detected; +/− = weak fluorescence; + = medium fluorescence; ++ = strong fluorescence
Description: as §1, §2, §3

[5] = test system: Listeria monocytogenes NCTC 11994; type: cell-based; set-up: key: − = no fluorescence detected; +/− = weak fluorescence; + = medium fluorescence; ++ = strong fluorescence
Description: as §1, §2, §3

[6] = test system: Staphylococcus aureus NCTC 6571; type: cell-based; set-up: key: − = no fluorescence detected; +/− = weak fluorescence; + = medium fluorescence; ++ = strong fluorescence
Description: as §1, §2, §3

[7] = test system: Providencia rettgeri NCTC 7475; type: cell-based; set-up: key: − = no fluorescence detected; +/− = weak fluorescence; + = medium fluorescence; ++ = strong fluorescence
Description: as §1, §2, §3

[8] = test system: Enterobacter cloacae NCTC 11936; type: cell-based; set-up: key: − = no fluorescence detected; +/− = weak fluorescence; + = medium fluorescence; ++ = strong fluorescence
Description: as §1, §2, §3

[9] = test system: Pseudomonas aeruginosa NCTC 10662; type: cell-based; set-up: key: − = no fluorescence detected; +/− = weak fluorescence; + = medium fluorescence; ++ = strong fluorescence
Description: as §1, §2, §3

[10] = test system: Streptococcus pyogenes NCTC 8306; type: cell-based; set-up: key: − = no fluorescence detected; +/− = weak fluorescence; + = medium fluorescence; ++ = strong fluorescence
Description: as §1, §2, §3

[11] = test system: Escherichia coli NCTC 10418; type: cell-based; set-up: key: − = no fluorescence detected; +/− = weak fluorescence; + = medium fluorescence; ++ = strong fluorescence
Description: as §1, §2, §3

[12] = test system: Enterococcus faecium NCTC 7171; type: cell-based; set-up: key: − = no fluorescence detected; +/− = weak fluorescence; + = medium fluorescence; ++ = strong fluorescence
Description: as §1, §2, §3

[13] = test system: Serratia marcescens NCTC 10211; type: cell-based; set-up: key: − = no fluorescence detected; +/− = weak fluorescence; + = medium fluorescence; ++ = strong fluorescence
Description: as §1, §2, §3

[14] = test system: Citrobacter freundii 46262 (wild); type: cell-based; set-up: key: − = no fluorescence detected; +/− = weak fluorescence; + = medium fluorescence; ++ = strong fluorescence
Description: as §1, §2, §3

[15] = test system: Enterococcus faecalis NCTC 775; type: cell-based; set-up: key: − = no fluorescence detected; +/− = weak fluorescence; + = medium fluorescence; ++ = strong fluorescence
Description: as §1, §2, §3

[16] = test system: Morganella morganii 462403 (wild); type: cell-based; set-up: key to Intensity of fluorescence, Morganella morganii 462403 / F: fluorescence (intensity), Morganella morganii 462403 (wild) / Intensity of the fluorescence, Morganella morganii 462403 (wild): − = no fluorescence detected; +/− = weak fluorescence; + = medium fluorescence; ++ = strong fluorescence
Description: as §1, §2, §3

[17] = test system: Salmonella typhimurium NCTC 74; type: cell-based; set-up: key to Intensity of fluorescence, Salmonella typhimurium NCTC 74 / F: fluorescence (intensity), Salmonella typhimurium NCTC 74 / Intensity of the fluorescence, Salmonella typhimurium NCTC 74: − = no fluorescence detected; +/− = weak fluorescence; + = medium fluorescence; ++ = strong fluorescence
Description: as §1, §2, §3

[18] = test system: Candida glabrata NCPF 3943; type: cell-based; set-up: key to Intensity of fluorescence, Candida glabrata NCPF3943 / F: fluorescence (intensity), Candida glabrata NCPF 3943 / Intensity of the fluorescence, Candida glabrata NCPF 3943: − = no fluorescence detected; +/− = weak fluorescence; + = medium fluorescence; ++ = strong fluorescence
Description: as §1, §2, §3

MRSA NCTC 11939 = type: cell-based, Staphylococcus aureus; set-up: key: − = no fluorescence detected; +/− = weak fluorescence; + = medium fluorescence; ++ = strong fluorescence
Description: as §1, §2, §3

[19] = test system: Acinetobacter baumanii ATCC 19606; type: cell-based; set-up: key to Intensity of fluorescence, Acinetobacter baumanii ATCC 19606 / Intensity of the fluorescence, Acinetobacter baumanii ATCC 19606: − = no fluorescence detected; +/− = weak fluorescence; + = medium fluorescence; ++ = strong fluorescence
Description: as §1, §2, §3

CN1CCN(c2ccc([N+](=O)[O-])c(-c3nc4ccccc4s3)c2)CC1 [Substrate 23]
Intensity of the fluorescence, Bacillus subtilis NCTC 9372 [1]: −
Intensity of the fluorescence, Staphylococcus epidermidis NCTC 11047 [2]: −
Intensity of the fluorescence, Yersinia enterocolitica NCTC 11176 [3]: −
Intensity of the fluorescence, Candida albicans ATCC 90028 [4]: −
Intensity of the fluorescence, Listeria monocytogenes NCTC 11994 [5]: −
Intensity of the fluorescence, Staphylococcus aureus NCTC 6571 [6]: V.
Intensity of the fluorescence, Providencia rettgeri NCTC 7475 [7]: +
Intensity of the fluorescence, Enterobacter cloacae NCTC 11936 [8]: +
Intensity of the fluorescence, Pseudomonas aeruginosa NCTC 10662 [9]: +
Intensity of the fluorescence, Streptococcus pyogenes NCTC 8306 [10]: −
Intensity of the fluorescence, Escherichia coli NCTC 10418 [11]: −
Intensity of the fluorescence, Enterococcus faecium NCTC 7171 [12]: −
Intensity of the fluorescence, Serratia marcescens NCTC 10211 [13]: +
Intensity of the fluorescence, Citrobacter freundii 46262 (wild) [14]: +
Intensity of the fluorescence, Enterococcus faecails NCTC 775 [15]: −
Intensity of the fluorescence, Morganella morganii 462403 (wild) [16]: +
Intensity of the fluorescence, Salmonella typhimurium NCTC 74 [17]: +
Intensity of the fluorescence, Candida glabrata NCPF 3943 [18]: −
Intensity of the fluorescence, MRSA NCTC 11939 (MRSA NCTC 11939): +/−
Intensity of the fluorescence, Acinetobacter baumanii ATCC 19606 [19]: −
